For 41 molecules, IC50 results are on record in the Kinase Knowledgebase extract (Sharma et al. 2016).

The target in the assay is PIK3CA (human) (UniProt P42336). Put plainly: Assessment of PIK3CA Kinase Activity.
Sequence of PIK3CA (human) (P42336 whole entry, looked up): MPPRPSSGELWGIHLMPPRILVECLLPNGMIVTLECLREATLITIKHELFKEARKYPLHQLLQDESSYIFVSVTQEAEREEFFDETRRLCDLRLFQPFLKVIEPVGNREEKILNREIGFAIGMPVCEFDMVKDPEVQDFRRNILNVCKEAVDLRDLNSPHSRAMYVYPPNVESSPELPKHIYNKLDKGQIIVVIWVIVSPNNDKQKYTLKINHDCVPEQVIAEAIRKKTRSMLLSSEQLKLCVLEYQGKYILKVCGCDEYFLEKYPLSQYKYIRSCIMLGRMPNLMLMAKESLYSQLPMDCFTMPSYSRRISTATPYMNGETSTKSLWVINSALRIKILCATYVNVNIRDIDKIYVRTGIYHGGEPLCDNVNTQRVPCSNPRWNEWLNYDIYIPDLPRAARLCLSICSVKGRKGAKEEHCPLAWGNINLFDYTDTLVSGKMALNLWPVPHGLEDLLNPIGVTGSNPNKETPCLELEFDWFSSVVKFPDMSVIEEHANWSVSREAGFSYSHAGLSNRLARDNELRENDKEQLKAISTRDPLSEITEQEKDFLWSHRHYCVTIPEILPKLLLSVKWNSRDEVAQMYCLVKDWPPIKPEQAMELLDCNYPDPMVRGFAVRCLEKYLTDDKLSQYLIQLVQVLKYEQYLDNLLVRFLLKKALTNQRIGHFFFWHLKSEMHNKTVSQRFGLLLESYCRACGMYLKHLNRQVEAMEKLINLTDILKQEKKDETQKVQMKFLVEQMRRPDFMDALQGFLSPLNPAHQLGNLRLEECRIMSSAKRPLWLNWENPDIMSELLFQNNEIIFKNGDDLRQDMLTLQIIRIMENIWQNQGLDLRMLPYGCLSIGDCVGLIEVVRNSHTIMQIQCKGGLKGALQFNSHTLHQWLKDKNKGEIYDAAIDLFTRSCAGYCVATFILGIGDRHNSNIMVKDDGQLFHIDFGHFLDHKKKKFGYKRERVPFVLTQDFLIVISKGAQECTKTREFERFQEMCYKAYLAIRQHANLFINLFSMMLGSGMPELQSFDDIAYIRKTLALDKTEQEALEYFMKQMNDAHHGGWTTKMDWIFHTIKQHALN
As to `Cc1cc(-c2cnc3sc(N)nc3c2)cc2c1OCCN(c1nc(CN3CCCC3)ncc1C(C)C)C2`, the IC50 (as a rule, the point on the concentration scale where inhibition reaches its midpoint) is no more than 0.1 µM. In turn, `Cc1cc(-c2cnc3sc(N)nc3c2)cc2c1OCCN(c1nc(N)nc(C)c1C(C)C)C2` yielded a half-maximal inhibitory concentration (IC50) of no more than 0.1 µM. The value for `Cc1cc(-c2nnc(N)s2)cc2c1OCCN(c1nc(N)nc(C)c1C(C)C)C2` was no more than 0.1 µM; that for `Cc1cc(-c2cnc3sc(N)nc3c2)cc2c1OCCN(c1nc(CN(C)C)nc(Cl)c1C(C)C)C2` was no more than 0.1 µM; that for `Cc1cc(-c2cnc3sc(N)nc3c2)cc2c1OCCN(c1nc(N)c(C#N)cc1C#N)C2` was no more than 0.1 µM. The value for `Cc1nc(C)c(C(C)C)c(N2CCOc3c(C)cc(-c4nnc(N)s4)cc3C2)n1` was no more than 0.1 µM; that for `CCNC(=O)c1nc(C)c(C(C)C)c(N2CCOc3c(C)cc(-c4cnc5sc(N)nc5c4)cc3C2)n1` was no more than 0.1 µM.

In turn, `COC(C)c1c(C)nc(C)nc1N1CCOc2c(C)cc(-c3cnc4sc(N)nc4c3)cc2C1` (stereo unspecified) returned a concentration for half-maximal inhibition (IC50) of no more than 0.1 µM. Under `Cc1ncc(-c2cc(C)c3c(c2)CN(c2nc(N)nc(C)c2C(C)C)CCO3)s1` stands 0.1 to 0.5 µM; under `CC#CCc1c(C)nc(C)nc1N1CCOc2c(C)cc(-c3cnc4sc(N)nc4c3)cc2C1`, no more than 0.1 µM. The value for `Cc1cc(-c2cnc3sc(N)nc3c2)cc2c1OCCN(c1nc(N)ccc1C#N)C2` was no more than 0.1 µM; that for `Cc1cc(-c2cnc3sc(N)nc3c2)cc2c1OCCN(c1nc(N)nc(C)c1C)C2` was no more than 0.1 µM. The value for `CCc1nc(N)nc(N2CCOc3c(C)cc(-c4cnc5sc(N)nc5c4)cc3C2)c1C(C)C` was no more than 0.1 µM.

Take `C=CCc1c(C)nc(N)nc1N1CCOc2c(C)cc(-c3cnc4sc(N)nc4c3)cc2C1`: the IC50 is no more than 0.1 µM.

Molecule `Cc1cc(-c2cnc3sc(N)nc3c2)cc2c1OCCN(c1nc(N)c(C#N)c(C)c1C#N)C2` returned an IC50 of no more than 0.1 µM.

`CCc1c(Cl)nc(N)nc1N1CCOc2c(C)cc(-c3cnc4sc(N)nc4c3)cc2C1` gave an IC50 of no more than 0.1 µM. Under `Cc1cc(-c2cnc3sc(N)nc3c2)cc2c1OCCN(c1ncnc(Cl)c1C(C)(C)O)C2` stands 0.1 to 0.5 µM; under `COCc1c(C)nc(C)nc1N1CCOc2c(C)cc(-c3cnc4sc(N)nc4c3)cc2C1`, no more than 0.1 µM. In turn, `Cc1cc(-c2cnc3sc(N)nc3c2)cc2c1OCCN(c1nc(CF)nc(C)c1C(C)C)C2` displayed an IC50 of no more than 0.1 µM.

`CCc1c(C)nc(CN(C)C)nc1N1CCOc2c(C)cc(-c3cnc4sc(N)nc4c3)cc2C1` came in with an IC50 of no more than 0.1 µM. The value for `CC(=O)NCc1nc(C)c(C(C)C)c(N2CCOc3c(C)cc(-c4cnc5sc(N)nc5c4)cc3C2)n1` was no more than 0.1 µM; that for `Cc1cc(-c2cnc3sc(N)nc3c2)cc2c1OCCN(c1nc(NCCN(C)C)nc(C)c1C(C)C)C2` was no more than 0.1 µM; that for `Cc1cc(-c2ccc(-c3ncc[nH]3)cc2)cc2c1OCCN(c1nc(N)nc(C)c1C(C)C)C2` was 0.1 to 0.5 µM.

With `Cc1nc2ncc(-c3cc(C)c4c(c3)CN(c3nc(CNCC(F)F)nc(C)c3C(C)C)CCO4)cc2[nH]1`, the half-maximal inhibitory concentration (IC50) is no more than 0.1 µM. The molecule `Cc1cc(-c2cnc3sc(N)nc3c2)cc2c1OCCN(c1ncnc(C)c1C(C)C)C2` returned an IC50 of no more than 0.1 µM. Under `CCc1c(C)nc(N)nc1N1CCOc2c(C)cc(-c3cnc4sc(N)nc4c3)cc2C1` stands no more than 0.1 µM; under `C#CCc1c(C)nc(C)nc1N1CCOc2c(C)cc(-c3cnc4sc(N)nc4c3)cc2C1`, no more than 0.1 µM; under `Cc1cc(-c2cnc3sc(N)nc3c2)cc2c1OCCN(c1nc(N3CC(O)C3)nc(C)c1C(C)C)C2`, no more than 0.1 µM. Under `Cc1cc(-c2cnc3sc(N)nc3c2)cc2c1OCCN(c1ncc(C(F)(F)F)c(N)n1)C2` stands 0.1 to 0.5 µM.

`C#Cc1c(C)nc(N)nc1N1CCOc2c(C)cc(-c3cnc4sc(N)nc4c3)cc2C1` came in with a concentration for half-maximal inhibition (IC50) of no more than 0.1 µM. The value for `Cc1cc(-c2ccc3c(c2)OCO3)cc2c1OCCN(c1nc(N)nc(C)c1C(C)C)C2` was no more than 0.1 µM; that for `Cc1nc2c(c(N3CCOc4c(C)cc(-c5cnc6sc(N)nc6c5)cc4C3)n1)CC(C)(C)CC2` was no more than 0.1 µM; that for `Cc1cc(-c2cnc3sc(N)nc3c2)cc2c1OCCN(c1nc(N)ncc1C(F)(F)F)C2` was no more than 0.1 µM. The value for `Cc1cc(-c2cnc3sc(N)nc3c2)cc2c1OCCN(c1nc(CN(C)C)ncc1CC(F)(F)F)C2` was 0.1 to 0.5 µM; that for `Cc1cc(-c2ccncc2)cc2c1OCCN(c1nc(N)nc(C)c1C(C)C)C2` was no more than 0.1 µM; that for `CCc1c(Cl)nc(CN(C)C)nc1N1CCOc2c(C)cc(-c3cnc4sc(N)nc4c3)cc2C1` was no more than 0.1 µM. Under `Cc1cc(-c2cnc3sc(N)nc3c2)cc2c1OCCN(c1nc(C3CCCN3)nc(C)c1C(C)C)C2` (stereo unspecified) stands no more than 0.1 µM; under `C=Cc1c(C)ncnc1N1CCOc2c(C)cc(-c3cnc4sc(N)nc4c3)cc2C1`, no more than 0.1 µM; under `COc1cc(-c2cnc3sc(N)nc3c2)cc2c1OCCN(c1nc(CN(C)C)nc(C)c1C(C)C)C2`, no more than 0.1 µM. `Cc1cc(-c2cnc3sc(N)nc3c2)cc2c1OCCN(c1ncnc(Cl)c1C(C)C)C2` gave an IC50 of no more than 0.1 µM. The value for `CCN(CC)Cc1nc(C)c(C(C)C)c(N2CCOc3c(C)cc(-c4cnc5sc(N)nc5c4)cc3C2)n1` was no more than 0.1 µM.
